Assay [1] deals with axillae of healthy female volunteers. The assay can be described thus: Antiperspirant efficacy, FDA hotroom protocol, gravimetric sweat collection. The class given is in vivo, human. To be noted: after four days of once-daily topical treatment, D4 vs D1 baseline. As for the experimental part: The antiperspirant efficacy and safety of investigated compounds were tested pursuant to protocol prescribed by the Food and Drug Administration, […] (Guidelines for Effectiveness Testing of OTC Antiperspirant Drug Products, 2004). The clinical study further conformed to Normative Resolution 196/96, CN/MS. The clinical study was divided into three tests and conducted with among at least thirty healthy female volunteers per test. They were between the ages of 18 and 50. The study was single-center, randomized, controlled, double blind assessment of the safety, tolerability and antiperspirant efficacy of TRPM8 agonists when applied to the axillae of healthy female volunteers. Before proceeding with the testing, all the volunteers were submitted to a “rest period” of 17 days, according to the FDA protocol. During this period, a placebo control formulation with no antiperspirancy effect was applied twice a day to both axillae. Treatments were applied once daily for four consecutive days (numbered D1 to D4). On D1, the baseline perspiration rate was determined before the antiperspirant formulations were applied. All the volunteers remained under hotroom conditions for a 40-minute warm-up period, divided into 2 periods of 20 minutes each. The term “hotroom condition” is the controlled environment (temperatures at 38° C.±1° C., and relative humidity of 35%±5%) established by the FDA standard protocol to thermally induce volunteer's perspiration. Cotton absorbent pads (Sussex®) were preweighed (P1) and placed in both axillae of each volunteer. At the end of the warm-up period, the perspiration collected on the absorbent pads was again weighed (P2) and the perspiration rates were obtained through gravimetric measurements (according to the formula P2-P1). According to FDA protocol, volunteers must produce at least 100 milligrams of sweat from the placebo control axilla in a 20-minute collection in the controlled environment, and at least one volunteer must produce more than 600 milligrams of sweat. Commercial menthol (YSC), Mentha essential oil (YSC) and Eucalyptus essential oil (Inter-Link) were presented as components of the antiperspirant formulations as described in the Example 1. Both commercial Mentha and Eucalyptus essential oils, which present menthol and eucalyptol, respectively, as the major components, were submitted to a GC-MS analysis in order to determine the appropriate amount of essential oils to be used to manufacture the antiperspirant compositions. In each treatment group as listed below, one of the antiperspirant formulations were applied to one axilla of the volunteers. […] Safety and tolerance were measured by assessment of visual effects and dermal irritancy, and subjective assessment of tolerance. […]

Assay [2] relates to axilla odor of volunteers. The assay can be described thus: Evaluation of deodorant effect (sniff test). The class given is in vivo, human. Conditions: at D4 vs D1, odor score 0-10 by two trained judges. As for the experimental part: The volunteers were submitted to a “rest period” as described previously in Example 2. The odor was evaluated for the volunteers at D1 and at D4. At D1 the evaluation was made before the application of the test formulations, after the 20-minute warm-up period, and only the volunteers with starting values not less than 2 were included in the test. The odor evaluation scoring system was based on a range of axilla odor from no malodor (0), to moderate malodor (5), to extremely strong malodor (10). Two trained judges, familiar with the procedures and rating system, subjectively made the odor measurements of both axillae of each volunteer. The data correspond to the individual subject scores by the two trained judges and to the individual average.

SMILES strings stand for the structures.

`CC1CCC(C(C)C)C(O)C1` (centres unmarked) [menthol]: the “reduction in sweat production” value was 61.4%±23.1 in assay [1] (Group 1, one hour after application); 63.7%±21.8 in assay [1] (Group 2, two hours after application); 63.7%±21.8 in assay [1] (Group 3, four hours after application); 75%±12.1 in assay [1] (Group 3, four hours after application, listed as menthol (YSC)). The “improvement in axilla odor” value in assay [2] is 6.4%±25.3.

Values taken from patent US20110223222A1, “Antiperspirant Compositions and Methods for Reducing Perspiration in Humans” (priority 2008, published 2011).
